From article PMC7175314, “Development of Novel ^111-In-Labelled DOTA Urotensin II Analogues for Targeting the UT Receptor Overexpressed in Solid Tumours” (Biomolecules, 2020)
Where a SMILES comes first, the peptide text is derived from it. Bridges are numbered along the chain shown (N, C = ends). [ ]: non-standard residue; d: D form. The star is where a group is joined. DOTA = O=C(O)CN1CCN(CC(=O)O)CCN(CC(=O)*)CCN(CC(=O)O)CC1; Pen = CC(C)(S)[C@H](N)C(=O)O; Orn = NCCC[C@H](N)C(=O)O; Ahx = NCCCCCC(=O)O

How the values were obtained:
DLD-1 cells [1] = assay: Cell proliferation, DLD-1; type: cell-based, human; settings: 10^−9 or 10^−7 M, only observable after 48 h
human UT-GFP = biological target: T1, human UT-GFP (Homo sapiens, UniProt Q9UKP6); assay: UT internalisation by confocal microscopy in HEK-293 cells expressing UT-GFP; type: cell-based; settings: 10^−7 M, 1 h
T1 construct: expressed in transfected cells; host or cells: HEK-293 (transient)
T1 sequence (Q9UKP6 1-389): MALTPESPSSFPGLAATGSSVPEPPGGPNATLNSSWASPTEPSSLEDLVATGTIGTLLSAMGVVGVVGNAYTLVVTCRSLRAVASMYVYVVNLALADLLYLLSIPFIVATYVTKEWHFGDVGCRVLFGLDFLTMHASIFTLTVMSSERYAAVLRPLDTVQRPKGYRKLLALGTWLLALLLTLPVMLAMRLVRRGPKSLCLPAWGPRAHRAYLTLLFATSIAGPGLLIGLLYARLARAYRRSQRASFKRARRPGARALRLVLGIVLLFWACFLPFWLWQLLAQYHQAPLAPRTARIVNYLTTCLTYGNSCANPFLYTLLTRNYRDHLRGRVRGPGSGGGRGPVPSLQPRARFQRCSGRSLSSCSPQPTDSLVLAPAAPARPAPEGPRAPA
Protocol: For cytochemistry experiments, HEK-293 cells expressing UT-GFP were seeded at 70,000 cells/well into transparent, 24-well plates (Corning, Bagneaux-sur-Loing, France), previously coated with human fibronectin (25 µg/mL, overnight, 4 °C) and incubated overnight in culture medium. […] Cells were rinsed with PBS, fixed with paraformaldehyde (4%, 10 min) and counterstained with DAPI (1 µg/mL, 5 min) to label nuclei. Image analysis was performed by confocal microscopy (Leica TCS SP8 confocal laser scanning microscope).

human UT [2] = biological target: T2, human UT (Homo sapiens, UniProt Q9UKP6); assay: UT internalisation assay (ELISA) in HEK-293 cells expressing UT-MYC; type: cell-based; settings: 1 h, graded concentrations up to 10^−6 M
T2 construct: expressed in transfected cells; host or cells: HEK-293
T2 sequence (Q9UKP6 1-389): T1 sequence (Q9UKP6 1-389)
Protocol: For ELISA experiments, HEK-293 cells expressing UT-MYC were plated at 10,000 cells/well into white, 96-well plates (Corning, Bagneaux-sur-Loing, France), previously coated with poly-L-ornithine (100 µg/mL, 1 h, 37 °C) and incubated overnight in culture medium. […] Cells were permeabilised or not with Triton X-100 (0.05%, 5 min). Non-specific binding sites were blocked with FBS (10%) and normal donkey serum (NDS, 2%, 1 h). Cells were then incubated with anti-MYC antibody (1 h, 20 °C) followed by incubation with GAM-HRP (1 h, 20 °C). After washes, chemoluminescence was detected with an ELISA kit (ThermoFisher Scientific, Montigny-Le-Bretonneux, France) and the InfinitePro200 plate reader (TECAN FRANCE, Lyon). Data are expressed as the ratio between intensity measured on the permeabilised cells and that measured on the non-permeabilised cells, compared to the average control value.

DLD-1 cells [3] = assay: Cell migration assay (modified Boyden chamber), DLD-1; type: cell-based, human; settings: 10^−9 or 10^−7 M, 24 h
Protocol: (§1) DLD-1 and A549 cells were seeded (50,000 cells) on transwell filters with 8-µm pores previously coated with human fibronectin (25 µg/mL, 4 °C, overnight) in serum-free medium on the upper chamber. […] After 24 h incubation period at 37 °C, filters were rinsed with PBS and non-migrating cells were removed from the upper surface by using a cotton-swab. Migrating cells were fixed in successive baths of methanol (50, 70, 90 and 100%), stained with eosin and haematoxylin and filters were mounted on glass slides with Mowiol. Random phase contrast images of filters were then recorded, using a digital camera connected to a Nikon microscope (Eclipse TS-100) and image analysis was performed by using Image J’s Cell Counter. The data were represented as the ratio of treatment chemoattraction normalised to control.

A549 cells [4] = assay: Cell migration assay (modified Boyden chamber), A549; type: cell-based, human; settings: 10^−9 or 10^−7 M, 24 h
Protocol: as §1

A549 cells [5] = assay: Cell proliferation, A549; type: cell-based, human; settings: 10^−9 or 10^−7 M, only observable after 48 h
[6] = design: species or system C57BL/6 mice; settings: mouse, in vivo, iv
Protocol: For biodistribution studies, C57BL6/6 wild-type mice were injected with ^111In-DOTA-hUII (3 MBq, 100 µL) into the tail vein. Mice were sacrificed at 4, 24, 48 and 72 h post-injection and blood and organs were collected. All samples were analysed with a gamma counter and the data presented were calculated as the percent injected dose per gram of tissue (% ID/g). Data were expressed as mean ± SEM obtained from four animals per kinetic time.

in vitro = in vitro ADME, human
Protocol: The mixture was incubated in a 5% CO2, 37 °C and 100 μL aliquots (in triplicates) were removed at different time points and treated with 200 μL of EtOH to precipitate serum proteins. Samples were then centrifuged for 15 min at 2500g and after centrifugation, 50 μL of supernatant was counted, and also analysed by thin layer chromatography to determine the amount of intact peptide and its metabolites in the serum.

in vivo = assay: in vivo; design: species or system Swiss (nu/nu) mice; settings: Swiss (nu/nu), mouse, iv, 2 MBq
Protocol: For tumour targeting studies, inocula (100 µL) containing a suspension of 5 × 10^6 freshly harvested A549 or DLD-1 cells in phosphate buffered-saline were injected subcutaneously into the right shoulder blade in Swiss (nu/nu) mice (n = 5 in each group). When the tumour size reached 250 mm^3 (approximatively 2-weeks), 2 MBq of ^111In-DOTA-hUII or ^111In-DOTA-urantide were injected into the tail vein. After 24 h, animals were sacrificed, and tumours were collected, directly frozen in isopentane (−50 °C) and stored at −80 °C.

human UT [7] = biological target: T2, human UT; assay: Competition binding of ^125I-hUII on HEK-293 cells expressing UT; settings: displacement of ^125I-hUII (0.2 nM), HEK-293 cells expressing human UT, 2 h 22 °C
Protocol: Cultured HEK-293 cells expressing UT-MYC were rinsed three times with PBS, dried under a cold air stream and stored at −80 °C until binding experiments. […] At the end of the incubation, cells were washed three times with assay buffer, solubilised with 1% SDS and the radioactivity was counted in a gamma counter (LKB Wallac, Evry, France).

human UT [8] = biological target: T2, human UT; assay: Calcium assay (fluo-4, FlexStation) in HEK-293 cells expressing UT; type: cell-based; settings: [Ca^2+]c increase, HEK-293 cells expressing human UT, 10^−11 to 10^−6 M
Protocol: HEK-293 cells expressing UT-MYC were plated at 50,000 cells/well into clear-bottom, black, 96-well plates (Corning, Bagneaux-sur-Loing, France), previously coated with poly-L-ornithine (100 µg/mL, 1 h, 37 °C) and incubated overnight in culture medium. After 24 h, cells were rinsed twice with HBSS buffer (20 mM HEPES, 0.5 mM MgCl2, 2.6 mM CaCl2, 7.7 mM Na2CO3, 1.4 mM MgSO4, 5.3 mM KCl, 138 mM NaCl, 0.1% BSA, 5.5 mM glucose, 2.5 mM probenecid, pH 7.4) (Sigma Aldrich, Saint-Quentin-Fallavier, France) and loaded (40 min at 37 °C) with the calcium-sensitive dye fluo-4 AM (ThermoFisher Scientific, Montigny-Le-Bretonneux, France) containing pluronic acid (20% in DMSO). […] Data were expressed as the ratio of maximum response to the average control value.

[9] = total radioactivity, Ratio tumour/muscle

IC50 (human UT [7]) [nM]	EC50 (human UT [8]) [nM]	SMILES	accumulation of UT in cytosolic puncta (confocal microscopy) (human UT-GFP)	internalisation rate of UT (ELISA) (human UT [2])	tissue to tissue ratio at 24 h (in vivo; total radioactivity)	tissue to tissue ratio at 24 h (in vivo; [9])	tissue to tissue ratio at 24 h (in vivo; tumour/muscle ratio)	tissue to tissue ratio at 24 h (in vivo)	tissue to tissue ratio at 24 h (in vivo; Ratio tumour/muscle)	further results
		CC(C)[C@H](NC(=O)[C@@H]1CSSC[C@H](NC(=O)[C@H](CC(=O)O)NC(=O)[C@@H]2CCCN2C(=O)[C@@H](NC(=O)[C@@H](N)CCC(=O)O)[C@@H](C)O)C(=O)N[C@@H](Cc2ccccc2)C(=O)N[C@@H](Cc2c[nH]c3ccccc23)C(=O)N[C@@H](CCCCN)C(=O)N[C@@H](Cc2ccc(O)cc2)C(=O)N1)C(=O)O [hUII, H2N-ETPDc-[CFWKYC]V-CO2H]	promoted a strong accumulation of UT in cytosolic puncta into cells	provoked a dose-dependent increase in internalisation rate of UT						proliferation rate (DLD-1 cells [1]): increase the proliferation rate; chemotactic migration (DLD-1 cells [3]): stimulated chemotactic migration; chemotactic migration (A549 cells [4]): stimulated chemotactic migration; proliferation rate (A549 cells [5]): increase the proliferation rate
		CC(C)[C@H](NC(=O)[C@@H]1CSSC[C@H](NC(=O)[C@H](CC(=O)O)NC(=O)[C@@H]2CCCN2C(=O)[C@@H](NC(=O)[C@H](CCC(=O)O)NC(=O)CCCCCNC(=O)CN2CCN(CC(=O)O)CCN(CC(=O)O)CCN(CC(=O)O)CC2)[C@@H](C)O)C(=O)N[C@@H](Cc2ccccc2)C(=O)N[C@@H](Cc2c[nH]c3ccccc23)C(=O)N[C@@H](CCCCN)C(=O)N[C@@H](Cc2ccc(O)cc2)C(=O)N1)C(=O)O [^111In-DOTA-hUII, metal not drawn]			2.85 ± 0.66	3.33 ± 0.96	~2.5			radioactive DOTA-peptide cleared from animals [6]: more than 90%; Percent of Radiolabelled Peptide (in vitro): 98 ± 2 (%); metabolised at 3 h, 0.6 µM (in vitro; human, serum): 30%; remaining at 1 h, 0.6 µM (in vitro; human, serum): 82 ± 2%; remaining at 3 h, 0.6 µM (in vitro; human, serum): 71 ± 4%
29 ± 11.2	50.5 ± 16.1	CC(C)[C@H](NC(=O)[C@@H]1CSSC(C)(C)[C@H](NC(=O)[C@@H](N)CC(=O)O)C(=O)N[C@@H](Cc2ccccc2)C(=O)N[C@H](Cc2c[nH]c3ccccc23)C(=O)N[C@@H](CCCN)C(=O)N[C@@H](Cc2ccc(O)cc2)C(=O)N1)C(=O)O [urantide, c-[Pen^5, D-Trp^7, Orn^8]hUII4-11, reference compound] (H-D[Pen]F[dW][Orn]YCV-OH; disulfide 2-7; N-terminus and C-terminus assumed)	ineffective	failed to provoke UT internalisation						
		CC(C)[C@H](NC(=O)[C@@H]1CSSC(C)(C)[C@H](NC(=O)[C@H](CC(=O)O)NC(=O)CCCCCNC(=O)CN2CCN(CC(=O)O)CCN(CC(=O)O)CCN(CC(=O)O)CC2)C(=O)N[C@@H](Cc2ccccc2)C(=O)N[C@H](Cc2c[nH]c3ccccc23)C(=O)N[C@@H](CCCN)C(=O)N[C@@H](Cc2ccc(O)cc2)C(=O)N1)C(=O)O [^111In-DOTA-urantide, metal not drawn] ({DOTA-Ahx}-D[Pen]F[dW][Orn]YCV-OH; disulfide 2-7)			2.08 ± 0.45	2.47 ± 0.15	~2.5			
9.13 ± 2.06	19.4 ± 2.47	CC(C)[C@H](NC(=O)[C@@H]1CSSC[C@H](NC(=O)[C@H](CC(=O)O)NC(=O)[C@@H]2CCCN2C(=O)[C@@H](NC(=O)[C@H](CCC(=O)O)NC(=O)CCCCCNC(=O)CN2CCN(CC(=O)O)CCN(CC(=O)O)CCN(CC(=O)O)CC2)[C@@H](C)O)C(=O)N[C@@H](Cc2ccccc2)C(=O)N[C@@H](Cc2c[nH]c3ccccc23)C(=O)N[C@@H](CCCCN)C(=O)N[C@@H](Cc2ccc(O)cc2)C(=O)N1)C(=O)O [DOTA-hUII, DOTA-Ahx-ETPD[CFWKYC]V]	promoted a strong accumulation of UT in cytosolic puncta into cells	exerted similar effects, with very close potency and efficacy				2.85 ± 0.66	3.33 ± 0.96	
		CC(C)[C@H](NC(=O)[C@@H]1CSSC(C)(C)[C@H](NC(=O)[C@H](CC(=O)O)NC(=O)CCCCCNC(=O)CN2CCN(CC(=O)O)CCN(CC(=O)O)CCN(CC(=O)O)CC2)C(=O)N[C@@H](Cc2ccccc2)C(=O)N[C@H](Cc2c[nH]c3ccccc23)C(=O)N[C@@H](CCCN)C(=O)N[C@@H](Cc2ccc(O)cc2)C(=O)N1)C(=O)O [DOTA-urantide, DOTA-Ahx-D[Pen-F-W-Orn-YC]V] ({DOTA-Ahx}-D[Pen]F[dW][Orn]YCV-OH; disulfide 2-7)	ineffective	failed to provoke UT internalisation				2.08 ± 0.45	2.47 ± 0.15	
